Experiments:
[1] = target: T1, Prostaglandin G/H synthase 2 (Homo sapiens, UniProt P35354)
T1 sequence (P35354 whole entry): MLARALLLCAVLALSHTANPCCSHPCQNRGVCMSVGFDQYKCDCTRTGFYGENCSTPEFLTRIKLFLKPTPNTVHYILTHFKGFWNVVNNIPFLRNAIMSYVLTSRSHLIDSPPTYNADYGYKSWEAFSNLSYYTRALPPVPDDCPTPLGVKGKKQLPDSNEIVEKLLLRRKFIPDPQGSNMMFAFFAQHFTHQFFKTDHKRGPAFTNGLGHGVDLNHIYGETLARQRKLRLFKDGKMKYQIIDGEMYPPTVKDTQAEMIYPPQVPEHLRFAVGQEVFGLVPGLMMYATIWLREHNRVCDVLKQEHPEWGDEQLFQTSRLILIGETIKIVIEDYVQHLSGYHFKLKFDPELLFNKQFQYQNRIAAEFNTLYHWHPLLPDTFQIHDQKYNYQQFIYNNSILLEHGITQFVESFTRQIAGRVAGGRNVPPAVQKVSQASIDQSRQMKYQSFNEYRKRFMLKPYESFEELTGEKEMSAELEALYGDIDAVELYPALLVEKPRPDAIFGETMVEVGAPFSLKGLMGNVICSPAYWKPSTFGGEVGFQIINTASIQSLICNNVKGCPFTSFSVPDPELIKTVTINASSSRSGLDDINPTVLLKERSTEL

[2] = target: T2, Prostaglandin G/H synthase 1 (Ovis aries, UniProt P05979)
T2 sequence (P05979 whole entry): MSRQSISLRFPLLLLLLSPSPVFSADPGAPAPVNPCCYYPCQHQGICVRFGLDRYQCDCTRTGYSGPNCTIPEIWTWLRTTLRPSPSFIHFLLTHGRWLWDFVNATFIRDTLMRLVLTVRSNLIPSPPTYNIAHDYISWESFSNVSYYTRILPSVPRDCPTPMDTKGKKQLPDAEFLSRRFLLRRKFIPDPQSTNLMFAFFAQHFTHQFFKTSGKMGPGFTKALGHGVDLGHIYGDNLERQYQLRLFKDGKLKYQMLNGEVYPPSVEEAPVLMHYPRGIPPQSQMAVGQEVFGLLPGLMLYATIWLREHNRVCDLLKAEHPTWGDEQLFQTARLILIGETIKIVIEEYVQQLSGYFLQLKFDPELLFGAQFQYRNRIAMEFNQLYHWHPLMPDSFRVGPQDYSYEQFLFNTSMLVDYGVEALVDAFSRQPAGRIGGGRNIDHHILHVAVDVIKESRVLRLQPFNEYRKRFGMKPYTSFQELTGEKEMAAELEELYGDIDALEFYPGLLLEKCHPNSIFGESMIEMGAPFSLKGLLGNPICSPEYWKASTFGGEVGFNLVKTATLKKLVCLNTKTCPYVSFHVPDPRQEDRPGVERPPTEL

IC50 [1]: 400 nM
IC50 [2]: 300 nM
Structure (SMILES): Cc1ccc(Cl)c(Nc2ccccc2C(=O)NCC(=O)O)c1Cl [2-({2-[(2,6-dichloro-3-methylphenyl)amino]phenyl}formamido)acetic acid]
